Assay results: ChEMBL document CHEMBL1130489, “Synthesis and anti-HIV activity of some new aminoadamantane heterocycles” (Bioorg Med Chem Lett, 1997)

Columns and labels:
Settings in all cases: Homo sapiens
MT4 [1] = experiment: Concentration required to protect MT-4 cells against the cytopathogenicity of HIV-1 (IIIB/LAI); assay type: functional, cell-based
MT4 [2] = experiment: Concentration required to protect MT-4 cells against the cytopathogenicity of HIV-2 (ROD); assay type: functional, cell-based
MT4 [3] = experiment: Cytotoxic concentration required to reduce the viability of MT-4 cells by 50%; assay type: functional

`CN(C)CCN1CCCCC1C12CC3CC(CC(C3)C1)C2` (configuration not stated) was tested, and the EC50 (MT4 [1]) was 40.8 µM, the EC50 (MT4 [2]) was > 276 µM and the CC50 (MT4 [3]) was 274 µM.
For `C1CCC(C23CC4CC(CC(C4)C2)C3)NC1` (configuration not stated), the EC50 (MT4 [1]) was > 403 µM, the EC50 (MT4 [2]) was > 403 µM and the CC50 (MT4 [3]) was 403 µM.
In the case of `c1ccc(CN2CCCCC2C23CC4CC(CC(C4)C2)C3)cc1` (configuration not stated), the EC50 (MT4 [1]) is reported as > 64 µM, the EC50 (MT4 [2]) is reported as > 64 µM and the CC50 (MT4 [3]) is reported as 62.7 µM.
With `S=C(Nc1ccc(Cl)cc1Cl)N1CCCCC1C12CC3CC(CC(C3)C1)C2` (configuration not stated) the EC50 (MT4 [1]) was > 19 µM, the EC50 (MT4 [2]) was > 19 µM and the CC50 (MT4 [3]) was 17.7 µM.
With `C1CCN(CC2CC2)C(C23CC4CC(CC(C4)C2)C3)C1` (configuration not stated) the EC50 (MT4 [1]) was 75.2 µM, the EC50 (MT4 [2]) was > 265 µM and the CC50 (MT4 [3]) was 263 µM.
For `CCN1CCCCC1C12CC3CC(CC(C3)C1)C2` (configuration not stated), the EC50 (MT4 [1]) was > 419 µM, the EC50 (MT4 [2]) was > 419 µM and the CC50 (MT4 [3]) was 417 µM.
`O=C(Nc1ccc(Cl)cc1)N1CCCCC1C12CC3CC(CC(C3)C1)C2` (configuration not stated) was tested, and the EC50 (MT4 [1]) was > 13 µM, the EC50 (MT4 [2]) was > 13 µM and the CC50 (MT4 [3]) was 12.6 µM.
For `C1CCN(CCN2CCCCC2C23CC4CC(CC(C4)C2)C3)CC1` (configuration not stated), the EC50 (MT4 [1]) was 3.6 µM, the EC50 (MT4 [2]) was > 54 µM and the CC50 (MT4 [3]) was 52.6 µM.
`CN1CCCCC1C12CC3CC(CC(C3)C1)C2` (configuration not stated) was tested, and the EC50 (MT4 [1]) was > 415 µM, the EC50 (MT4 [2]) was > 415 µM and the CC50 (MT4 [3]) was 413 µM.
